Experimental data published in patent US20110086870A1, “Combination Therapy” (AstraZeneca AB, priority 2003, published 2011).

Key:
[1] = system: human LS-174T colon tumour xenografts; experiment: Human LS-174T colon tumour xenografts in Nude mice, test (a) 5-FU+ZD6474; assay type: in vivo; details: for Inhibition of Control Tumour Growth at day 13 / Regressions: number of tumours which had regressed by ≧10% in volume by day 13, compared with pre-treatment volume on day 0: ZD6474 25 mg/kg/day p.o. d 0-13, 5-FU 75 mg/kg i.v. d 0 and 7; for Inhibition of Control Tumour Growth at day 13: versus vehicle control; for Regressions: number of tumours which had regressed by ≧10% in volume by day 13, compared with pre-treatment volume on day 0: regressed tumours/tumours in group; for tumour regressions: share of tumours regressed by day 13, same doses as the table
Procedure: 10^7 LS-174T tumour cells in 0.2 ml of serum free Roswell Park Memorial Institute (RPMI)-1640 medium were injected subcutaneously (s.c.) into the flanks of 10 athymic (nu/nu genotype) mice. When tumour sizes reached 700-1000 mm^3 (3-4 weeks), tumours were surgically excised and smaller tumour fragments thereof (20-30 mg) were implanted s.c. in the right flank of 120 Nude mice. When tumours reached a volume of 100 to 200 mm^3 (14-16 days after the graft), mice were randomized into groups (13-15 per group) and treatment started.
• The control group (Group 1) received a daily oral (p.o.) administration of ZD6474 vehicle for 14 consecutive days (day 0-13) combined with two intravenous (i.v.) injections of saline (the vehicle for 5-FU) on day 0 and 7. • For Group 2, the treatments consisted of a daily p.o. administration of ZD6474 alone at 25 mg/kg/administration for 14 consecutive days (day 0-13) combined with two i.v. injections of saline (the vehicle for 5-FU) on day 0 and 7. ZD6474 was prepared as a suspension in 1% polysorbate 80 (i.e. a 1% (v/v) solution of polyoxyethylene (20) sorbitan mono-oleate in deionised water). • Group 3 received two i.v. injections of 5-FU at 75 mg/kg/injection, on day 0 and 7, combined with a daily p.o. administration of ZD6474 vehicle for 14 consecutive days (day 0-13). • Group 4 received daily p.o. administration of ZD6474 at 25 mg/kg/administration for 14 consecutive days (day 0-13) combined with two i.v. injections of 5-FU at 75 mg/kg/injection, on day 0 and 7.
The administration volume of ZD6474 was 10.0 ml/kg (200 μl for a 20 g mouse). The injection volume of 5-FU was 10.0 ml/kg (200 μl for a 20 g mouse).
Tumor volumes (mm^3) were assessed at least twice weekly by bilateral Vernier caliper measurement and, taking length to be the longest diameter across the tumor and width the corresponding perpendicular, calculated using the formula (π/6)×(length×width)×the square root of (length×width). Growth inhibition from the start of treatment was assessed by comparison of the differences in tumor volume between control and treated groups. For all mice, the study was stopped when tumours reached 2,000 mm^3 For all mice, the tumours were excised and weights recorded upon termination of the study.

[2] = system: human LS-174T colon tumour xenografts; experiment: Human LS-174T colon tumour xenografts in Nude mice, test (b) CPT-11+ZD6474; assay type: in vivo; details: ZD6474 25 mg/kg/day p.o. d 0-20, CPT-11 20 mg/kg i.v. d 0, 7 and 14
Procedure: • The control group (Group 1) received a daily oral (p.o.) administration of ZD6474 vehicle for 14 consecutive days (day 0-13) combined with two intravenous (i.v.) injections of saline (the vehicle for CPT-11) on day 0 and 7. […]
Tumor volumes (mm^3) were assessed at least twice weekly by bilateral Vernier caliper measurement and, taking length to be the longest diameter across the tumor and width the corresponding perpendicular, calculated using the formula (π/6)×(length×width)×square root of (length×width). Growth inhibition from the start of treatment was assessed by comparison of the differences in tumor volume between control and treated groups. For all mice, the study was stopped when tumours reached 2,000 mm^3 For all mice, the tumours were excised and weights recorded upon termination of the study.

Compound | Inhibition of Control Tumour Growth at day 13 [1] [%] | Regressions: number of tumours which had regressed by ≧10% in volume by day 13, compared with pre-treatment volume on day 0 [1] | tumour regressions [1] [%] | mean tumour volume on day 20 [2] [mm^3]
COc1cc2c(Nc3ccc(Br)cc3F)ncnc2cc1OCC1CCN(C)CC1 [ZD6474, 4-(4-bromo-2-fluoroanilino)-6-methoxy-7-(1-methylpiperidin-4-ylmethoxy)quinazoline] | 80 | 5/15 | 33 | 475
O=c1[nH]cc(F)c(=O)[nH]1 [5-FU, 5-fluorouracil, reference compound] | 68 | 6/15 | 40 | –
